According to paper PMC7156458, “Synthetic biology based construction of biological activity-related library of fungal decalin-containing diterpenoid pyrones” (Nature Communications, 2020):

Biological target: Aβ42 (Homo sapiens, UniProt P05067)
Test: Th-T (thioflavin-T) assay of Aβ42 aggregation
Type: biochemical
Details: for Th-T assay plate reading, mean of three wells (Supplementary Fig. 47): source data, Ab alone and No Ab as controls

Sequence of Aβ42 (P05067 672-713): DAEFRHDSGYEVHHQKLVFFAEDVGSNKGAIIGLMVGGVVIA

Compound: C=C1CCC2C(C)(CCC=C(C)C)C(O)CCC2(C)C1Cc1c(O)c(C)c(C)oc1=O (stereo not drawn) [Compound 4]
- Th-T fluorescence, mean of three wells (Aβ42 aggregation time course, reading M117): 2.764
- Th-T fluorescence, mean of three wells (Aβ42 aggregation time course, reading M118): 2.782
- Th-T fluorescence, mean of three wells (Aβ42 aggregation time course, reading M119): 2.76
- Th-T fluorescence, mean of three wells (Aβ42 aggregation time course, reading M120): 2.773
- Th-T fluorescence, mean of three wells (Aβ42 aggregation time course, reading M121): 2.751
- Th-T fluorescence, mean of three wells (Aβ42 aggregation time course, reading M122): 2.756
- Th-T fluorescence, mean of three wells (Aβ42 aggregation time course, reading M123): 2.7381
- Th-T fluorescence, mean of three wells (Aβ42 aggregation time course, reading M124): 2.734
- Th-T fluorescence, mean of three wells (Aβ42 aggregation time course, reading M125): 2.771
- Th-T fluorescence, mean of three wells (Aβ42 aggregation time course, reading M126): 2.764
- Th-T fluorescence, mean of three wells (Aβ42 aggregation time course, reading M127): 2.744
- Th-T fluorescence, mean of three wells (Aβ42 aggregation time course, reading M128): 2.737
- Th-T fluorescence, mean of three wells (Aβ42 aggregation time course, reading M129): 2.759
- Th-T fluorescence, mean of three wells (Aβ42 aggregation time course, reading M130): 2.729
- Th-T fluorescence, mean of three wells (Aβ42 aggregation time course, reading M131): 2.75
- Th-T fluorescence, mean of three wells (Aβ42 aggregation time course, reading M132): 2.778
- Th-T fluorescence, mean of three wells (Aβ42 aggregation time course, reading M133): 2.76
- Th-T fluorescence, mean of three wells (Aβ42 aggregation time course, reading M134): 2.744
- Th-T fluorescence, mean of three wells (Aβ42 aggregation time course, reading M135): 2.723
- Th-T fluorescence, mean of three wells (Aβ42 aggregation time course, reading M136): 2.752
- Th-T fluorescence, mean of three wells (Supplementary Fig. 47, reading M137): 2.732
- Th-T fluorescence, mean of three wells (Supplementary Fig. 47, reading M138): 2.752
- Th-T fluorescence, mean of three wells (Supplementary Fig. 47, reading M139): 2.7362
- Th-T fluorescence, mean of three wells (Supplementary Fig. 47, reading M140): 2.723
- Th-T fluorescence, mean of three wells (Supplementary Fig. 47, reading M141): 2.765
- Th-T fluorescence, mean of three wells (Supplementary Fig. 47, reading M142): 2.731
- Th-T fluorescence, mean of three wells (Supplementary Fig. 47, reading M143): 2.798
- Th-T fluorescence, mean of three wells (Supplementary Fig. 47, reading M144): 2.748
- Th-T fluorescence, mean of three wells (Supplementary Fig. 47, reading M145): 2.777
- Th-T assay plate reading, mean of three wells (Supplementary Fig. 47) (measurement M1): 0.3186
- Th-T assay plate reading, mean of three wells (Supplementary Fig. 47) (measurement M2): 0.3159
- Th-T assay plate reading, mean of three wells (Supplementary Fig. 47) (measurement M3): 0.3554
- Th-T assay plate reading, mean of three wells (Supplementary Fig. 47) (measurement M4): 0.4086
- Th-T assay plate reading, mean of three wells (Supplementary Fig. 47) (measurement M5): 0.4658
- Th-T assay plate reading, mean of three wells (Supplementary Fig. 47) (measurement M6): 0.5438
- Th-T assay plate reading, mean of three wells (Supplementary Fig. 47) (measurement M7): 0.6121
- Th-T assay plate reading, mean of three wells (Supplementary Fig. 47) (measurement M8): 0.6677
- Th-T assay plate reading, mean of three wells (Supplementary Fig. 47) (measurement M9): 0.6972
- Th-T assay plate reading, mean of three wells (Supplementary Fig. 47) (measurement M10): 0.7395
- Th-T assay plate reading, mean of three wells (Supplementary Fig. 47) (measurement M11): 0.7934
- Th-T assay plate reading, mean of three wells (Supplementary Fig. 47) (measurement M12): 0.8591
- Th-T assay plate reading, mean of three wells (Supplementary Fig. 47) (measurement M13): 0.9703
- Th-T assay plate reading, mean of three wells (Supplementary Fig. 47) (measurement M14): 1.131
- Th-T assay plate reading, mean of three wells (Supplementary Fig. 47) (measurement M15): 1.366
- Th-T assay plate reading, mean of three wells (Supplementary Fig. 47) (measurement M16): 1.644
- Th-T fluorescence, mean of three wells (reading M17, Supplementary Fig. 47 source data): 1.91
- Th-T fluorescence, mean of three wells (time-course reading M97, Supplementary Fig. 47 source data): 2.7952
- Th-T fluorescence, mean of three wells (time-course reading M98, Supplementary Fig. 47 source data): 2.787
- Th-T fluorescence, mean of three wells (time-course reading M99, Supplementary Fig. 47 source data): 2.818
- Th-T fluorescence, mean of three wells (time-course reading M100, Supplementary Fig. 47 source data): 2.783
- Th-T fluorescence, mean of three wells (time-course reading M101, Supplementary Fig. 47 source data): 2.764
- Th-T fluorescence, mean of three wells (time-course reading M102, Supplementary Fig. 47 source data): 2.765
- Th-T fluorescence, mean of three wells (time-course reading M103, Supplementary Fig. 47 source data): 2.763
- Th-T fluorescence, mean of three wells (time-course reading M104, Supplementary Fig. 47 source data): 2.782
- Th-T fluorescence, mean of three wells (time-course reading M105, Supplementary Fig. 47 source data): 2.776
- Th-T fluorescence, mean of three wells (time-course reading M106, Supplementary Fig. 47 source data): 2.782
- Th-T fluorescence, mean of three wells (time-course reading M107, Supplementary Fig. 47 source data): 2.786
- Th-T fluorescence, mean of three wells (time-course reading M108, Supplementary Fig. 47 source data): 2.803
- Th-T fluorescence, mean of three wells (time-course reading M109, Supplementary Fig. 47 source data): 2.779
- Th-T fluorescence, mean of three wells (time-course reading M110, Supplementary Fig. 47 source data): 2.789
- Th-T fluorescence, mean of three wells (time-course reading M111, Supplementary Fig. 47 source data): 2.786
- Th-T fluorescence, mean of three wells (time-course reading M112, Supplementary Fig. 47 source data): 2.79
- Th-T fluorescence, mean of three wells (time-course reading M113, Supplementary Fig. 47 source data): 2.795
- Th-T fluorescence, mean of three wells (time-course reading M114, Supplementary Fig. 47 source data): 2.781
- Th-T fluorescence, mean of three wells (time-course reading M115, Supplementary Fig. 47 source data): 2.739
- Th-T fluorescence, mean of three wells (time-course reading M116, Supplementary Fig. 47 source data): 2.771
